Earlier results on one compound are cited in US20260014110A1, “RETINOIC ACID-ALCOHOL AMINE COMPLEX, PREPARATION METHOD AND APPLICATION THEREOF” (NANJING INDETEK LABORATORY CO., LTD., priority 2022, published 2026).

SMILES strings stand for the structures. Converted amounts (≈) assume the structure as drawn. Read-outs that look alike come from different tables or passages of the source.

On to `CC1=C(/C=C/C(C)=C/C=C/C(C)=C/C(=O)O)C(C)(C)CCC1` [retinoic acid], for which the “solubility in water” value was “extremely difficult to dissolve in water” (Chinese Pharmacopoeia 2020, volume II) and 1.06 µM (≈ 0.318 µg/mL) (literature (Ascenso et al. 2011)).
